According to US11628220B2, “Pharmaceutical composition and methods of uses” (Foresee Pharmaceuticals Co., Ltd., priority 2016, dated 2023):
≈ marks a conversion by molar mass, not a printed value.

Legend:
Format in all cases: physicochemical
[1] = Solubility of compound IVO in solutions containing L-Arginine; conditions: thermodynamic from solid
Description: After 24-hours, the samples were centrifuged. […] One possibility is that L-Arginine may help promote the formation of inclusion complex between IVO and MBCD.

[2] = Comparable solubility test for IVO ASD-01 in DI water; conditions: 1.5 ml DI water
Description: The samples were centrifuged at 3 and 24 hours.

[3] = Aqueous solubility in different cyclodextrin solutions (excess compound, shaken 24 hours, HPLC); conditions: aqueous cyclodextrin solution, thermodynamic from solid, room temperature, read-out: Solubility in CD's solution (concentration of compound)
Description: In order to test the effect of various CDs on the aqueous solubility of compound IVE, 1 mL of each of the following aqueous solutions as described in Table 2 was prepared. […] Excess IVE was present in all samples at all times to obtain solubility. After 24-hours, the samples were centrifuged. […] The size of the compound may allow it to form an inclusion complex, resulting in a higher aqueous solubility.
In order to test the effect of various CDs on the aqueous solubility of compound IVP, 1 mL of each of the following aqueous solutions as described in Table 3 was prepared. […] Excess IVP was present in all samples at all times. After 24-hours, the samples were centrifuged. […] The size of the compound may allow it to form an inclusion complex, resulting in a higher aqueous solubility.
In order to test the effect of various CDs on the aqueous solubility of compound IVO, 1 mL of each of the following aqueous solutions as described in Table 4 was prepared. […] Excess IVO was present in all samples at all times. After 24-hours, the samples were centrifuged. […] The size of the compound may allow it to form an inclusion body complex, resulting in a higher aqueous solubility.
In order to test the effect of various CDs on the aqueous solubility of compound IVQ, 1 mL of each of the following aqueous solutions as described in Table 5 was prepared. […] Excess IVQ was present in all samples at all times. After 24-hours, the samples were centrifuged. […] The size of the compound may allow it to form an inclusion body complex, resulting in a higher aqueous solubility.

Question: With `Cc1cccc(COc2ccc(Sc3ccoc3C3NC(=O)NC3=O)cc2)c1` (stereo not drawn) [IVO, 5-{3-[4-(3-Methyl-benzyloxy)phenylthio]fur-2-yl}imidazolidine-2,4-dione] as the molecule, how does the solubility at 24 h ([1]; DI water, water, L-Arginine 0 % w/w in DI water) read?
Answer: Its solubility at 24 h is 1.15 µg/mL (≈ 2.91 µM).

Question: And the solubility at 24 h ([1]; aqueous L-Arginine solution in DI water, aqueous with cosolvent or surfactant or cyclodextrin, L-Arginine 0.15 % w/w in DI water)?
Answer: The solubility at 24 h was 11.1 µg/mL (≈ 28.1 µM).

Question: What about the solubility at 24 h ([1]; aqueous L-Arginine solution in DI water, aqueous with cosolvent or surfactant or cyclodextrin, L-Arginine 0.31 % w/w in DI water) of the same molecule?
Answer: The solubility at 24 h was 15.1 µg/mL (≈ 38.3 µM).

Question: And the solubility at 24 h ([1]; aqueous L-Arginine solution in DI water, aqueous with cosolvent or surfactant or cyclodextrin, L-Arginine 0.5 % w/w in DI water)?
Answer: Its solubility at 24 h is 25.3 µg/mL (≈ 64.2 µM).

Question: And the solubility at 24 h ([1]; aqueous L-Arginine solution in DI water, aqueous with cosolvent or surfactant or cyclodextrin, L-Arginine 0.63 % w/w in DI water)?
Answer: The solubility at 24 h was 34.2 µg/mL (≈ 86.7 µM).

Question: And the solubility at 24 h ([1]; aqueous L-Arginine solution in DI water, aqueous with cosolvent or surfactant or cyclodextrin, L-Arginine 1.25 % w/w in DI water)?
Answer: The solubility at 24 h was 46.8 µg/mL (≈ 119 µM).

Question: What about the solubility at 24 h ([1]; aqueous L-Arginine solution in DI water, aqueous with cosolvent or surfactant or cyclodextrin, L-Arginine 2.5 % w/w in DI water) of the same molecule?
Answer: Its solubility at 24 h is 85.8 µg/mL (≈ 218 µM).

Question: And the “pH at 24 hrs equilibrium” value ([2]; 24 hrs)?
Answer: Its value is 8.09.

Question: What about the solubility at 24 h ([2]; pH 8.09, thermodynamic from solid, room temperature, 24 hrs) of the same molecule?
Answer: Its solubility at 24 h is 11 µg/mL (≈ 27.9 µM).

Question: What about the solubility at 3 h ([2]; thermodynamic from solid, room temperature, 3 hrs) of the same molecule?
Answer: The solubility at 3 h was 2 µg/mL (≈ 5.07 µM).

Question: And the solubility at 24 h ([3]; aqueous with cosolvent or surfactant or cyclodextrin, ACD 5 mg/ml)?
Answer: The solubility at 24 h was 37 µg/mL (≈ 93.8 µM).

Question: What about the solubility at 24 h ([3]; aqueous with cosolvent or surfactant or cyclodextrin, ACD 10 mg/ml) of the same molecule?
Answer: Its solubility at 24 h is 30 µg/mL (≈ 76.1 µM).

Question: And the solubility at 24 h ([3]; aqueous with cosolvent or surfactant or cyclodextrin, ACD 15 mg/ml)?
Answer: The solubility at 24 h was 26 µg/mL (≈ 65.9 µM).

Question: And the solubility at 24 h ([3]; aqueous with cosolvent or surfactant or cyclodextrin, ACD 20 mg/ml)?
Answer: Its solubility at 24 h is 13 µg/mL (≈ 33 µM).

Question: And the solubility at 24 h ([3]; aqueous with cosolvent or surfactant or cyclodextrin, ACD 30 mg/ml)?
Answer: The solubility at 24 h was 10 µg/mL (≈ 25.4 µM).

Question: And the solubility at 24 h ([3]; aqueous with cosolvent or surfactant or cyclodextrin, ACD 40 mg/ml)?
Answer: The solubility at 24 h was 17 µg/mL (≈ 43.1 µM).

Question: And the solubility at 24 h ([3]; aqueous with cosolvent or surfactant or cyclodextrin, HPBCD 25 mg/ml)?
Answer: The solubility at 24 h was 37 µg/mL (≈ 93.8 µM).

Question: And the solubility at 24 h ([3]; aqueous with cosolvent or surfactant or cyclodextrin, HPBCD 50 mg/ml)?
Answer: Its solubility at 24 h is 83 µg/mL (≈ 210 µM).

Question: And the solubility at 24 h ([3]; aqueous with cosolvent or surfactant or cyclodextrin, HPBCD 75 mg/ml)?
Answer: The solubility at 24 h was 108 µg/mL (≈ 274 µM).

Question: And the solubility at 24 h ([3]; aqueous with cosolvent or surfactant or cyclodextrin, HPBCD 100 mg/ml)?
Answer: The solubility at 24 h was 184 µg/mL (≈ 466 µM).

Question: And the solubility at 24 h ([3]; aqueous with cosolvent or surfactant or cyclodextrin, HPBCD 150 mg/ml)?
Answer: Its solubility at 24 h is 312 µg/mL (≈ 791 µM).

Question: And the solubility at 24 h ([3]; aqueous with cosolvent or surfactant or cyclodextrin, HPBCD 200 mg/ml)?
Answer: The solubility at 24 h was 467 µg/mL (≈ 1180 µM).

Question: What about the solubility at 24 h ([3]; aqueous with cosolvent or surfactant or cyclodextrin, HPGCD 25 mg/ml) of the same molecule?
Answer: The solubility at 24 h was 9 µg/mL (≈ 22.8 µM).

Question: What about the solubility at 24 h ([3]; aqueous with cosolvent or surfactant or cyclodextrin, HPGCD 50 mg/ml) of the same molecule?
Answer: Its solubility at 24 h is 16 µg/mL (≈ 40.6 µM).

Question: And the solubility at 24 h ([3]; aqueous with cosolvent or surfactant or cyclodextrin, HPGCD 75 mg/ml)?
Answer: The solubility at 24 h was 6 µg/mL (≈ 15.2 µM).

Question: What about the solubility at 24 h ([3]; aqueous with cosolvent or surfactant or cyclodextrin, HPGCD 100 mg/ml) of the same molecule?
Answer: The solubility at 24 h was 2 µg/mL (≈ 5.07 µM).

Question: And the solubility at 24 h ([3]; aqueous with cosolvent or surfactant or cyclodextrin, HPGCD 150 mg/ml)?
Answer: The solubility at 24 h was 4 µg/mL (≈ 10.1 µM).

Question: And the solubility at 24 h ([3]; aqueous with cosolvent or surfactant or cyclodextrin, HPGCD 200 mg/ml)?
Answer: Its solubility at 24 h is 3 µg/mL (≈ 7.61 µM).

Question: And the solubility at 24 h ([3]; aqueous with cosolvent or surfactant or cyclodextrin, MBCD 25 mg/ml)?
Answer: The solubility at 24 h was 244 µg/mL (≈ 619 µM).

Question: And the solubility at 24 h ([3]; aqueous with cosolvent or surfactant or cyclodextrin, MBCD 50 mg/ml)?
Answer: The solubility at 24 h was 477 µg/mL (≈ 1210 µM).

Question: And the solubility at 24 h ([3]; aqueous with cosolvent or surfactant or cyclodextrin, MBCD 75 mg/ml)?
Answer: Its solubility at 24 h is 673 µg/mL (≈ 1710 µM).

Question: And the solubility at 24 h ([3]; aqueous with cosolvent or surfactant or cyclodextrin, MBCD 100 mg/ml)?
Answer: The solubility at 24 h was 1070 µg/mL (≈ 2700 µM).

Question: And the solubility at 24 h ([3]; aqueous with cosolvent or surfactant or cyclodextrin, MBCD 150 mg/ml)?
Answer: The solubility at 24 h was 1700 µg/mL (≈ 4300 µM).

Question: What about the solubility at 24 h ([3]; aqueous with cosolvent or surfactant or cyclodextrin, MBCD 200 mg/ml) of the same molecule?
Answer: Its solubility at 24 h is 1780 µg/mL (≈ 4520 µM).

Question: What about the solubility at 24 h ([3]; aqueous with cosolvent or surfactant or cyclodextrin, SBEBCD 25 mg/ml) of the same molecule?
Answer: Its solubility at 24 h is 94 µg/mL (≈ 238 µM).

Question: What about the solubility at 24 h ([3]; aqueous with cosolvent or surfactant or cyclodextrin, SBEBCD 50 mg/ml) of the same molecule?
Answer: The solubility at 24 h was 116 µg/mL (≈ 294 µM).

Question: What about the solubility at 24 h ([3]; aqueous with cosolvent or surfactant or cyclodextrin, SBEBCD 75 mg/ml) of the same molecule?
Answer: The solubility at 24 h was 156 µg/mL (≈ 395 µM).

Question: What about the solubility at 24 h ([3]; aqueous with cosolvent or surfactant or cyclodextrin, SBEBCD 100 mg/ml) of the same molecule?
Answer: Its solubility at 24 h is 174 µg/mL (≈ 441 µM).

Question: What about the solubility at 24 h ([3]; aqueous with cosolvent or surfactant or cyclodextrin, SBEBCD 150 mg/ml) of the same molecule?
Answer: The solubility at 24 h was 315 µg/mL (≈ 799 µM).

Question: What about the solubility at 24 h ([3]; aqueous with cosolvent or surfactant or cyclodextrin, SBEBCD 200 mg/ml) of the same molecule?
Answer: The solubility at 24 h was 761 µg/mL (≈ 1930 µM).

Question: What about the solubility at 24 h ([3]; water, ACD 0 mg/ml) of the same molecule?
Answer: Its solubility at 24 h is 26 µg/mL (≈ 65.9 µM).

Question: What about the solubility at 24 h ([3]; water, HPBCD 0 mg/ml) of the same molecule?
Answer: Its solubility at 24 h is 26 µg/mL (≈ 65.9 µM).

Question: What about the solubility at 24 h ([3]; water, HPGCD 0 mg/ml) of the same molecule?
Answer: The solubility at 24 h was 26 µg/mL (≈ 65.9 µM).

Question: What about the solubility at 24 h ([3]; water, MBCD 0 mg/ml) of the same molecule?
Answer: Its solubility at 24 h is 26 µg/mL (≈ 65.9 µM).

Question: What about the solubility at 24 h ([3]; water, SBEBCD 0 mg/ml) of the same molecule?
Answer: Its solubility at 24 h is 26 µg/mL (≈ 65.9 µM).
